Measurements as given in patent publication US9663523B2, “BET protein-inhibiting 5-aryltriazoleazepines” (BAYER PHARMA AKTIENGESELLSCHAFT, priority 2012, dated 2017).

What was measured:
[1] = biological target: BRD4(1) (amino acids 44-168) (Homo sapiens (Human), UniProt O60885); assay: BRD4 binding strength, TR-FRET (HTRF) assay of BRD4(1) / acetylated histone H4 peptide interaction; conditions: inhibition of BRD4(1)/Ac-H4 peptide interaction
Text: To assess the BRD4 binding strength of the compounds according to the invention, the ability thereof to inhibit the interaction between BRD4 and acetylated histone H4 in a dose-dependent manner was quantified. For this purpose, a time-resolved fluorescence resonance energy transfer (TR-FRET) assay was used, which measures the binding between N-terminally His6-tagged BRD4(1) (amino acids 44-168) and a synthetic acetylated histone H4 (Ac-H4) peptide with sequence […]-biotin. The recombinant BRD4 protein produced in-house according to Filippakopoulos et al., Cell, 2012, 149:214-231 was expressed in E. coli and purified by means of (Ni-NTA) affinity and (Sephadex G-75) size exclusion chromatography. The Ac-H4 peptide can be purchased, for example, from Biosyntan (Berlin, Germany). […] For this purpose, 100-fold concentrated solutions in DMSO were prepared by serial dilutions (1:3.4) of a 2 mM stock solution into a clear, 384-well microtitre plate (Greiner Bio-One, Frickenhausen, Germany). From this, 50 nl were transferred into a black test plate (Greiner Bio-One, Frickenhausen, Germany). […] This was followed by a 10-minute incubation step at 22° C. for the pre-equilibration of putative complexes between BRD4 and the substances. Subsequently, 3 μl of a solution of 1.67 times the concentration (in assay buffer) consisting of Ac-H4 peptide (83.5 nM) and TR-FRET detection reagents [16.7 nM anti-6His-XL665 and 3.34 nM streptavidin cryptate (both from Cisbio Bioassays, Codolet, France), and 668 mM potassium fluoride (KF)] were added. The mixture was then incubated in the dark at 22° C. for one hour and then at 4° C. overnight. The formation of BRD4/Ac-H4 complexes was determined by the measurement of the resonance energy transfer from the streptavidin-Eu cryptate to the anti-6His-XL665 antibody present in the reaction. […] The ratio of the emissions at 665 nm and at 622 nm was taken as an indicator of the amount of BRD4/Ac-H4 complexes formed.

MOLM-13 cells = assay: Cell proliferation (alamarBlue), MOLM-13; assay type: cell-based; conditions: Homo sapiens, acute myeloid leukaemia cell line, 96 hours incubation
Protocol: (§1) The ability of the compounds according to the invention to inhibit the proliferation of various cell lines was determined.
(§2) Cell viability was determined by means of the alamarBlue® reagent (Invitrogen). The cells were sown at different densities (MOLM-13, LAPC-4, MOLP-8 and MDA-MB-231: 4000 cells/well; B16F10: 400 cells/well) in 100 μl of growth medium on 96-well microtitre plates. After overnight incubation at 37° C., the fluorescence values (CI values) were determined. The plates were then treated with various substance dilutions and incubated at 37° C. for 96 hours (MOLM-13, MDA-MB-231 and B16F10 cells), 120 hours (MOLP-8 cells) or 168 hours (LAPC-4 cells). Subsequently, the fluorescence values were determined (CO values). For the data analysis, the CI values were subtracted from the CO values and the results were compared between cells which had been treated with various dilutions of the substance or only with buffer solution.
(§3) The compounds according to the invention were tested in the cell lines in Table 2, which represent the indications specified by way of example:
(§4) The indications corresponding to the different cell lines can be found in Table 2.

LAPC-4 cells = assay: Cell proliferation (alamarBlue), LAPC-4; assay type: cell-based; conditions: Homo sapiens, LAPC4; prostate carcinoma (androgen receptor-positive) cell line, 168 hours incubation
Protocol: as §1
as §2, with “values).” for “values). For the data analysis, the CI values were subtracted from the CO values and the results were compared between cells which had been treated with various dilutions of the substance or only with buffer solution.”
as §3, §4

B16F10 cells = assay: Cell proliferation (alamarBlue), B16F10; assay type: cell-based; conditions: Mus musculus, B16-F10; melanoma cell line, 96 hours incubation
Protocol: as §1, §2, §3, §4

MDA-MB-231 cells = assay: Cell proliferation (alamarBlue), MDA-MB-231; assay type: cell-based; conditions: Homo sapiens, mammary carcinoma cell line, 96 hours incubation
Protocol: as §1, §2, §3, §4

MOLP-8 cells = assay: Cell proliferation (alamarBlue), MOLP-8; assay type: cell-based; conditions: Homo sapiens, multiple myeloma cell line, 120 hours incubation
Protocol: as §1
as §2, with “values).” for “values). For the data analysis, the CI values were subtracted from the CO values and the results were compared between cells which had been treated with various dilutions of the substance or only with buffer solution.”
as §3, §4

## Cc1nnc2n1-c1ccccc1C(c1ccc(Cl)cc1)=CC2CC(=O)N1CCS(=O)(=O)C1 (stereo not shown) [Example 30, 2-[6-(4-chlorophenyl)-1-methyl-4H-[1,2,4]triazolo[4,3-a][1]benzazepin-4-yl]-1-(1,1-dioxido-1,3-thiazolidin-3-yl)ethanone]
[1]
  IC50: 0.08 µM
MOLM-13 cells
  IC50: 0.85 µM
LAPC-4 cells
  IC50: 0.19 µM
B16F10 cells
  IC50: 0.49 µM
MDA-MB-231 cells
  IC50: 1.13 µM

## Cc1nnc2n1-c1ccccc1C(c1ccc(Cl)cc1)=CC2Cc1nc(C(C)C)no1 (stereo in doubt) [Example 36, (−)-(4R)-6-(4-chlorophenyl)-1-methyl-4-{[3-(propan-2-yl)-1,2,4-oxadiazol-5-yl]methyl}-4H-[1,2,4]triazolo[4,3-a][1]benzazepine]
[1]
  IC50: 0.09 µM
MOLM-13 cells
  IC50: 0.4 µM
LAPC-4 cells
  IC50: 0.16 µM
B16F10 cells
  IC50: 0.24 µM
MDA-MB-231 cells
  IC50: 0.41 µM

## Cc1nnc(C[C@@H]2C=C(c3ccc(Cl)cc3)c3cc(OC(F)(F)F)ccc3-n3c(C)nnc32)o1 [Example 55, (4R)-6-(4-chlorophenyl)-1-methyl-4-[(5-methyl-1,3,4-oxadiazol-2-yl)methyl]-8-(trifluoromethoxy)-4H-[1,2,4]triazolo[4,3-a][1]benzazepine]
[1]
  IC50: 0.09 µM
MOLM-13 cells
  IC50: 0.18 µM
B16F10 cells
  IC50: 0.27 µM
MOLP-8 cells
  IC50: 0.17 µM

## CCNC(=O)CC1C=C(c2ccc(Cl)cc2)c2ccccc2-n2c(C)nnc21 (stereo in doubt) [Example 13, (−)-2-[(4R)-6-(4-chlorophenyl)-1-methyl-4H-[1,2,4]triazolo[4,3-a][1]benzazepin-4-yl]-N-ethylacetamide]
[1]
  IC50: 0.03 µM
MOLM-13 cells
  IC50: 0.31 µM
LAPC-4 cells
  IC50: 0.06 µM
B16F10 cells
  IC50: 0.15 µM
MDA-MB-231 cells
  IC50: 0.32 µM

## Cc1nnc2n1-c1ccccc1C(c1ccc(Cl)cc1)=CC2CC(=O)OC(C)(C)C (stereo not shown) [Example 8, tert-butyl [6-(4-chlorophenyl)-1-methyl-4H-[1,2,4]triazolo[4,3-a][1]benzazepin-4-yl]acetate]
MOLM-13 cells
  IC50: 3.91 µM
LAPC-4 cells
  IC50: 0.82 µM
B16F10 cells
  IC50: 1 µM
MOLP-8 cells
  IC50: 4.8 µM

## Cc1nnc2n1-c1ccccc1C(c1ccc(Cl)cc1)=CC2CC(=O)N1CC2(CCS2(=O)=O)C1 (stereo not shown) [Example 18, 2-[6-(4-chlorophenyl)-1-methyl-4H-[1,2,4]triazolo[4,3-a][1]benzazepin-4-yl]-1-(1,1-dioxido-1-thia-6-azaspiro[3.3]hept-6-yl)ethanone]
MOLM-13 cells
  IC50: 0.33 µM
B16F10 cells
  IC50: 0.36 µM
MDA-MB-231 cells
  IC50: 0.8 µM

## Cc1nnc2n1-c1ccccc1C(c1ccc(Cl)cc1)=CC2CC(=O)N1C2CCC1CC(=O)C2 (stereo not shown) [Example 22]
[1]
  IC50: 0.34 µM
MOLM-13 cells
  IC50: 1.73 µM
LAPC-4 cells
  IC50: 0.21 µM
B16F10 cells
  IC50: 0.84 µM
MDA-MB-231 cells
  IC50: 2.9 µM

## Cc1nnc2n1-c1ccc(OC(F)(F)F)cc1C(c1ccc(Cl)cc1)=CC2CC(=O)OC(C)(C)C (stereo in doubt) [Example 50, tert-butyl (−)-[(4R)-6-(4-chlorophenyl)-1-methyl-8-(trifluoromethoxy)-4H-[1,2,4]triazolo[4,3-a][1]benzazepin-4-yl]acetate]
[1]
  IC50: 0.79 µM
MOLM-13 cells
  IC50: 0.88 µM
B16F10 cells
  IC50: 1.17 µM
MOLP-8 cells
  IC50: 1.05 µM

## Cc1nnc2n1-c1ccccc1C(c1ccc(Cl)cc1)=C[C@H]2CC(=O)N1CCC(=O)C1 [Example 27, (−)-1-{[(4R)-6-(4-chlorophenyl)-1-methyl-4H-[1,2,4]triazolo[4,3-a][1]benzazepin-4-yl]acetyl}pyrrolidin-3-one]
[1]
  IC50: 0.11 µM
MOLM-13 cells
  IC50: 0.25 µM
LAPC-4 cells
  IC50: 0.18 µM
B16F10 cells
  IC50: 0.34 µM
MDA-MB-231 cells
  IC50: 0.71 µM

## Cc1nnc2n1-c1ccccc1C(c1ccc(Cl)cc1)=CC2CC(=O)N1CC(F)C1 (stereo not shown) [Example 16, 2-[6-(4-chlorophenyl)-1-methyl-4H-[1,2,4]triazolo[4,3-a][1]benzazepin-4-yl]-1-(3-fluoroazetidin-1-yl)ethanone]
[1]
  IC50: 0.22 µM
MOLM-13 cells
  IC50: 0.53 µM
LAPC-4 cells
  IC50: 0.26 µM
B16F10 cells
  IC50: 0.46 µM
MDA-MB-231 cells
  IC50: 1.04 µM

## Cc1nnc2n1-c1ccccc1C(c1ccc(Cl)cc1)=CC2CC(=O)N1CC(Oc2ccccc2)C1 (stereo not shown) [Example 24, 2-[6-(4-chlorophenyl)-1-methyl-4H-[1,2,4]triazolo[4,3-a][1]benzazepin-4-yl]-1-(3-phenoxyazetidin-1-yl)ethanone]
[1]
  IC50: 0.22 µM
MOLM-13 cells
  IC50: 2.94 µM
LAPC-4 cells
  IC50: 0.55 µM
B16F10 cells
  IC50: 1.05 µM
MDA-MB-231 cells
  IC50: 2.53 µM

## Cc1nnc2n1-c1ccccc1C(c1cccc(Cl)c1)=CC2CC(=O)N1CC2(COC2)C1 (stereo not shown) [Example 10, 2-[6-(3-chlorophenyl)-1-methyl-4H-[1,2,4]triazolo[4,3-a][1]benzazepin-4-yl]-1-(2-oxa-6-azaspiro[3.3]hept-6-yl)ethanone]
[1]
  IC50: 0.73 µM
MOLM-13 cells
  IC50: 2.63 µM
LAPC-4 cells
  IC50: 1.61 µM
B16F10 cells
  IC50: 3.03 µM
MOLP-8 cells
  IC50: 1.29 µM

## Cc1nnc(CC2C=C(c3ccc(Cl)cc3)c3cc(OC(F)(F)F)ccc3-n3c(C)nnc32)o1 (stereo not shown) [Example 54, 6-(4-chlorophenyl)-1-methyl-4-[(5-methyl-1,3,4-oxadiazol-2-yl)methyl]-8-(trifluoromethoxy)-4H-[1,2,4]triazolo[4,3-a][1]benzazepine]
[1]
  IC50: 0.13 µM
MOLM-13 cells
  IC50: 0.3 µM
B16F10 cells
  IC50: 0.5 µM
MOLP-8 cells
  IC50: 0.36 µM

## Cc1nnc2n1-c1ccc(OC(F)(F)F)cc1C(c1ccc(Cl)cc1)=C[C@H]2CC(=O)N1CCN2C(=O)CCC2C1 (stereo partly drawn) [Example 56, 2-{[(4R)-6-(4-chlorophenyl)-1-methyl-8-(trifluoromethoxy)-4H-[1,2,4]triazolo[4,3-a][1]benzazepin-4-yl]acetyl}hexahydropyrrolo[1,2-a]pyrazin-6(2H)-one]
[1]
  IC50: 0.18 µM
MOLM-13 cells
  IC50: 0.15 µM
B16F10 cells
  IC50: 0.22 µM
MOLP-8 cells
  IC50: 0.12 µM

## Cc1nnc2n1-c1ccc(OC(F)(F)F)cc1C(c1ccc(Cl)cc1)=C[C@H]2CC(=O)NCCN1CCOCC1 [Example 53, 2-[(4R)-6-(4-chlorophenyl)-1-methyl-8-(trifluoromethoxy)-4H-[1,2,4]triazolo[4,3-a][1]benzazepin-4-yl]-N-[2-(morpholin-4-yl)ethyl]acetamide]
[1]
  IC50: 0.08 µM
MOLM-13 cells
  IC50: 0.15 µM
B16F10 cells
  IC50: 0.22 µM
MOLP-8 cells
  IC50: 0.11 µM

## Cc1nnc2n1-c1ccccc1C(c1ccc(Cl)cc1)=C[C@H]2Cc1nnc(COCc2ccccc2)o1 [Example 57, (4R)-4-({5-[(benzyloxy)methyl]-1,3,4-oxadiazol-2-yl}methyl)-6-(4-chlorophenyl)-1-methyl-4H-[1,2,4]triazolo[4,3-a][1]benzazepine]
[1]
  IC50: 0.27 µM
MOLM-13 cells
  IC50: 0.41 µM
B16F10 cells
  IC50: 0.57 µM
MOLP-8 cells
  IC50: 0.42 µM

## Cc1nnc(CC2C=C(c3ccc(Cl)cc3)c3ccccc3-n3c(C)nnc32)s1 (stereo in doubt) [Example 42, (+)-(4R)-6-(4-chlorophenyl)-1-methyl-4-[(5-methyl-1,3,4-thiadiazol-2-yl)methyl]-4H-[1,2,4]triazolo[4,3-a][1]benzazepine]
[1]
  IC50: 0.05 µM
MOLM-13 cells
  IC50: 0.17 µM
B16F10 cells
  IC50: 0.14 µM
MOLP-8 cells
  IC50: 0.11 µM

## CCNC(=O)C[C@@H]1C=C(c2ccc(Cl)cc2)c2cc(OC(F)(F)F)ccc2-n2c(C)nnc21 [Example 52, 2-[(4R)-6-(4-chlorophenyl)-1-methyl-8-(trifluoromethoxy)-4H-[1,2,4]triazolo[4,3-a][1]benzazepin-4-yl]-N-ethylacetamide]
[1]
  IC50: 0.19 µM
MOLM-13 cells
  IC50: 0.31 µM
B16F10 cells
  IC50: 0.42 µM
MOLP-8 cells
  IC50: 0.26 µM
